Data: US10428083B2, “Heterocyclylmethyl-thienouracile as antagonists of the adenosine-A2B-receptor” (BAYER PHARMA AKTIENGESELLSCHAFT, priority 2015, dated 2019)

Target: human adenosine A2b receptor (Homo sapiens (Human), UniProt P29275)
Experiment: Cellular in vitro reporter gene test for A2b receptor activity (CHO-K1, CRE-luciferase, NECA stimulation)
Format: cell-based
Settings: recombinant CHO-K1 cell line, CRE-luciferase reporter, antagonism of EC50 concentration of NECA; in some cases means of several determinations, rounded to two significant figures; read-out: A2b receptor IC50
Summary of the method: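 CHO-K1 cells with CRE-driven luciferase; antagonists co-incubated with NECA at its EC50, determined in a pre-experiment on each test day. Luciferase read by luminescence 3 h after NECA addition.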

human adenosine A2b receptor, sequence (P29275 whole entry): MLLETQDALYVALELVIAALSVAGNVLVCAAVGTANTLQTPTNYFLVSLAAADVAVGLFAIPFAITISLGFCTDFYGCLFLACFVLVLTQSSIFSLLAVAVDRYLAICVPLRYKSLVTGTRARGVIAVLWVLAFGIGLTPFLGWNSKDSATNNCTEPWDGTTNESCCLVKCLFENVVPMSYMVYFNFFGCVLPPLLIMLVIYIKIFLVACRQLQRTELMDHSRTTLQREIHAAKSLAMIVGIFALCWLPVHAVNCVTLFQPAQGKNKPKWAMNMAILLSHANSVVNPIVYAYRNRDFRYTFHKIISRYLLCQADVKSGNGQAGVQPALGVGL

SMILES	IC50 [µM]
Cc1c(CN2CCNC2=NC#N)sc2c1c(=O)n(C(C)C)c(=O)n2CCC(F)(F)F [Example 262, [1-{[3-Isopropyl-5-methyl-2,4-dioxo-1-(3,3,3-trifluoropropyl)-1,2,3,4-tetrahydrothieno[2,3-d]pyrimidin-6-yl]methyl}imidazolidin-2-ylidene]cyanamide]	0.0023
COCCn1c(=O)n(C(C)C)c(=O)c2c(C)c(CN3CCNC3=NC#N)sc21 [Example 263, [1-{[3-Isoprpy-1-(2-methoxyethyl)-5-methyl-2,4-dioxo-1,2,3,4-tetrahydrothieno[2,3-d]pyrimidin-6-yl]methyl}imidazolidin-2-ylidene]cyanamide]	0.0053
COCCn1c(=O)n(CC(F)(F)F)c(=O)c2c(C)c(CN3CCNC3=NC#N)sc21 [Example 268, [1-{[1-(2-Methoxyethyl)-5-methyl-2,4-dioxo-3-(2,2,2-trifluoroethyl)-1,2,3,4-tetrahydrothieno[2,3-d]pyrimidin-6-yl]methyl}imidazolidin-2-ylidene]cyanamide]	0.012
CCn1c(=O)c2c(C)c(CN3CCNC(=O)C3=O)sc2n(CCOC2CC2)c1=O [Example 270, 1-[2-(Cyclopropyloxy)ethyl]-6-[(2,3-dioxopiperazin-1-yl)methyl]-3-ethyl-5-methylthieno[2,3-d]pyrimidine-2,4(1H,3H)-dione]	0.038
CCOCCn1c(=O)n(CC(C)C)c(=O)c2c(C)c(CN3CCNC(=O)C3=O)sc21 [Example 271, 6-[(2,3-Dioxopiperazin-1-yl)methyl]-1-(2-ethoxyethyl)-3-isobutyl-5-methylthieno[2,3-d]pyrimidine-2,4(1H,3H)-dione]	0.047
Cc1c(CN2CCNC(=O)C2=O)sc2c1c(=O)n(CC(C)(C)C)c(=O)n2CCC(F)(F)F [Example 272, 3-(2,2-Dimethylpropyl)-6-[(2,3-dioxopiperazin-1-yl)methyl]-5-methyl-1-(3,3,3-trifluoropropyl)thieno[2,3-d]pyrimidine-2,4(1H,3H)-dione]	0.01
Cc1c(CN2CCNC(=O)C2=O)sc2c1c(=O)n(CC(C)(C)C)c(=O)n2CCCF [Example 273, 3-(2,2-Dimethylpropyl)-6-[(2,3-dioxopiperazin-1-yl)methyl]-1-(3-fluoropropyl)-5-methylthieno[2,3-d]pyrimidine-2,4(1H,3H)-dione]	0.019
COCCn1c(=O)n(CC(C)(C)C)c(=O)c2c(C)c(CN3CCNC(=O)C3=O)sc21 [Example 274, 3-(2,2-Dimethylpropyl)-6-[(2,3-dioxopiperazin-1-yl)methyl]-1-(2-methoxyethyl)-5-methylthieno[2,3-d]pyrimidine-2,4(1H,3H)-dione]	0.024
Cc1c(CN2CCNC(=O)C2=O)sc2c1c(=O)n(CC(F)F)c(=O)n2C [Example 275, 3-(2,2-Difluoroethyl)-6-[(2,3-dioxopiperazin-1-yl)methyl]-1,5-dimethylthieno[2,3-d]pyrimidine-2,4(1H,3H)-dione]	0.076
COCCn1c(=O)c2c(C)c(CN3CCNC(=O)C3=O)sc2n(CCC(F)(F)F)c1=O [Example 276, 6-[(2,3-Dioxopiperazin-1-yl)methyl]-3-(2-methoxyethyl)-5-methyl-1-(3,3,3-trifluoropropyl)thieno[2,3-d]pyrimidine-2,4(1H,3H)-dione]	0.0099
COCCn1c(=O)c2c(C)c(CN3CCNC(=O)C3=O)sc2n(CCCF)c1=O [Example 277, 6-[(2,3-Dioxopiperazin-1-yl)methyl]-1-(3-fluoropropyl)-3-(2-methoxyethyl)-5-methylthieno[2,3-d]pyrimidine-2,4(1H,3H)-dione]	0.068
COC(C)(C)Cn1c(=O)c2c(C)c(CN3CCNC(=O)C3=O)sc2n(CCC(F)(F)F)c1=O [Example 279, 6-[(2,3-Dioxopiperazin-1-yl)methyl]-3-(2-methoxy-2-methylpropyl)-5-methyl-1-(3,3,3-trifluoropropyl)thieno[2,3-d]pyrimidine-2,4(1H,3H)-dione]	0.02
COC(C)(C)Cn1c(=O)c2c(C)c(CN3CCNC(=O)C3=O)sc2n(CCCF)c1=O [Example 280, 6-[(2,3-Dioxopiperazin-1-yl)methyl]-1-(3-fluoropropyl)-3-(2-methoxy-2-methylpropyl)-5-methylthieno[2,3-d]pyrimidine-2,4(1H,3H)-dione]	0.082
COCCn1c(=O)n(CC(C)(C)OC)c(=O)c2c(C)c(CN3CCNC(=O)C3=O)sc21 [Example 281, 6-[(2,3-Dioxopiperazin-1-yl)methyl]-1-(2-methoxyethyl)-3-(2-methoxy-2-methylpropyl)-5-methylthieno[2,3-d]pyrimidine-2,4(1H,3H)-dione]	0.046
Cc1c(Cn2[nH]ccc2=O)sc2c1c(=O)n(CC(F)(F)F)c(=O)n2CCC(F)(F)F [Example 282, 5-Methyl-6-[(5-oxo-2,5-dihydro-1H-pyrazol-1-yl)methyl]-3-(2,2,2-trifluoroethyl)-1-(3,3,3-trifluoropropyl)thieno[2,3-d]pyrimidine-2,4(1H,3H)-dione]	0.03
COCCn1c(=O)n(CC(F)(F)F)c(=O)c2c(C)c(Cn3[nH]ccc3=O)sc21 [Example 283, 1-(2-Methoxyethyl)-5-methyl-6-[(5-oxo-2,5-dihydro-1H-pyrazol-1-yl)methyl]-3-(2,2,2-trifluoroethyl)thieno[2,3-d]pyrimidine-2,4(1H,3H)-dione]	0.079
COCCn1c(=O)c2c(C)c(Cn3[nH]ccc3=O)sc2n(CCC(F)(F)F)c1=O [Example 287, 3-(2-Methoxyethyl)-5-methyl-6-[(5-oxo-2,5-dihydro-1H-pyrazol-1-yl)methyl]-1-(3,3,3-trifluoropropyl)thieno[2,3-d]pyrimidine-2,4(1H,3H)-dione]	0.063
COCCn1c(=O)c2c(C)c(Cn3[nH]ccc3=O)sc2n(CCOC)c1=O [Example 288, 1,3-Bis(2-methoxyethyl)-5-methyl-6-[(5-oxo-2,5-dihydro-1H-pyrazol-1-yl)methyl]thieno[2,3-d]pyrimidine-2,4(1H,3H)-dione]	0.14
CCn1c(=O)c2c(C)c(CN3CCNC3=S)sc2n(CF)c1=O [Example 292, 3-Ethyl-1-(fluoromethyl)-5-methyl-6-[(2-thioxoimidazolidin-1-yl)methyl]thieno[2,3-d]pyrimidine-2,4(1H,3H)-dione]	0.0083
CCn1c(=O)c2c(C)c(CN3CCNC3=S)sc2n(CCOC2CCCC2)c1=O [Example 293, 1-[2-(Cyclopentyloxy)ethyl]-3-ethyl-5-methyl-6-[(2-thioxoimidazolidin-1-yl)methyl]thieno[2,3-d]pyrimidine-2,4(1H,3H)-dione]	0.12
CCSCCn1c(=O)n(CC)c(=O)c2c(C)c(CN3CCNC3=S)sc21 [Example 294, 3-Ethyl-1-[2-(ethylsulphanyl)ethyl]-5-methyl-6-[(2-thioxoimidazolidin-1-yl)methyl]thieno[2,3-d]pyrimidine-2,4(1H,3H)-dione]	0.02
CCn1c(=O)c2c(C)c(CN3CCNC3=S)sc2n(CCS(C)(=O)=O)c1=O [Example 295, 3-Ethyl-5-methyl-1-[2-(methylsulphonyl)ethyl]-6-[(2-thioxoimidazolidin-1-yl)methyl]thieno[2,3-d]pyrimidine-2,4(1H,3H)-dione]	0.22
CCn1c(=O)c2c(C)c(CN3CCNC3=S)sc2n(CCCOC)c1=O [Example 296, 3-Ethyl-1-(3-methoxypropyl)-5-methyl-6-[(2-thioxoimidazolidin-1-yl)methyl]thieno[2,3-d]pyrimidine-2,4(1H,3H)-dione]	0.016
